From PubChem BioAssay (NCI)
Several values for one entry are separate records, joined by “and”; a condition that tells them apart may be missing. Equal values may be shown once.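 How tested: cells in 96-well plates exposed to compound for 48 hours at five concentrations. GI50 marks 50% less growth. TGI: total growth inhibition.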 Where a SMILES comes first, the peptide text is derived from it. Bridges are numbered along the chain shown (N, C = ends).

What was measured:
Test in all cases: DTP human tumour cell line panel, 48 h
[1] = test system: COLO 205 colon
[2] = test system: NCI-H460 lung
[3] = test system: OVCAR-5 ovarian
[4] = test system: RPMI-8226 leukemia
[5] = test system: SK-MEL-28 melanoma
[6] = test system: SK-MEL-5 melanoma
[7] = test system: SK-OV-3 ovarian
[8] = test system: SNB-75 CNS
[9] = test system: TK-10 renal
[10] = test system: SW-620 colon

In the case of C#CC(O)/C=C/C(O)CCCC(O)CC#CC(O)C#CCCCCC(O)/C=C/CCCC(=O)CCCCCCCCCCCCCCCC(O)C(O)C#CC(=O)O (stereo unspecified), the TGI [1] is reported as > 25 µM, the TGI [2] is reported as > 25 µM and the TGI [3] is reported as > 25 µM. The TGI [4] was > 25 µM, the TGI [5] was > 25 µM and the TGI [6] was > 25 µM. For the same molecule, the TGI [7] was > 25 µM, the TGI [8] was > 25 µM and the TGI [9] was > 25 µM.
COC(=O)CCCc1nc2ccccc2nc1N=Nc1ccccc1 was tested, and the TGI [1] was 31.2 µM, the TGI [2] was > 100 µM and the TGI [3] was > 100 µM. For the same molecule, the TGI [4] was 98.8 µM, the TGI [5] was > 100 µM and the TGI [6] was > 100 µM. For the same molecule, the TGI [7] was > 100 µM, the TGI [8] was > 100 µM and the TGI [10] was > 100 µM. The TGI [9] was > 100 µM.
CCOC(=O)C1=C(N2CCCC2)C(=O)C(C(=O)OCC)C1 (stereo unspecified) was tested, and the TGI [1] was > 100 µM, the TGI [2] was > 100 µM and the TGI [3] was > 100 µM. The TGI [4] was > 100 µM, the TGI [5] was > 100 µM and the TGI [6] was > 100 µM. The TGI [7] was > 100 µM, the TGI [8] was > 100 µM and the TGI [10] was > 100 µM. For the same molecule, the TGI [9] was > 100 µM.
For Cc1cc2ccccc2n2c1nc1ccc(O)cc12, the TGI [1] was > 10 µM, the TGI [2] was > 10 µM and the TGI [3] was > 10 µM. For the same molecule, the TGI [4] was > 10 µM, the TGI [5] was > 10 µM and the TGI [6] was > 10 µM. The TGI [7] was > 10 µM, the TGI [8] was > 10 µM and the TGI [10] was > 10 µM. For the same molecule, the TGI [9] was > 10 µM.
For COC(=O)C1CCC(=O)NCCCCC(NC(=O)C(N)CC(=O)O)C(=O)N1 (stereo not drawn) (H-Asp-Lys-Glu-OMe; lactam 2-3; configuration not given here), the TGI [1] was > 100 µM, the TGI [2] was > 100 µM and the TGI [3] was > 100 µM. The TGI [4] was > 100 µM, the TGI [5] was > 100 µM and the TGI [6] was > 100 µM. For the same molecule, the TGI [7] was > 100 µM, the TGI [8] was > 100 µM and the TGI [10] was > 100 µM. For the same molecule, the TGI [9] was > 100 µM.
CC(C)=CC(=O)OC1C2C(C)=CC(=O)C(O)C2(C)C2C3(O)OCC24C(CC(=O)OC14)C(C)C3O (stereo unspecified) was tested, and the GI50 [1] was 0.117 µM, the TGI [1] was 0.359 µM and 1.11 µM and 0.42 µM and the GI50 [2] was 0.00788 µM. The TGI [2] was 0.0298 µM and 0.0334 µM, the GI50 [3] was 0.113 µM and the GI50 [4] was 0.02 µM. For the same molecule, the TGI [4] was 0.028 µM and 0.0291 µM, the GI50 [5] was 0.02 µM and the TGI [5] was 0.0175 µM and 0.0363 µM. The GI50 [6] was 0.02 µM, the TGI [6] was 0.01 µM and 0.0209 µM and the GI50 [7] was 0.549 µM. For the same molecule, the TGI [7] was 0.709 µM and 3.74 µM, the GI50 [8] was 0.0338 µM and the TGI [8] was 0.0621 µM and 0.0711 µM and 0.062 µM. The GI50 [10] was 0.0108 µM and 0.0265 µM, the GI50 [9] was 0.0511 µM and the TGI [9] was 0.0917 µM and 0.81 µM.
Work on C=CC(C)(C)/C(=C\CO[Si](C(C)C)(C(C)C)C(C)C)C(=O)N(C)c1ccccc1I yielded a TGI [1] of 31.5 µM, a TGI [2] of 28.1 µM and a TGI [3] of 27.5 µM. It also gave a TGI [4] of 8.54 µM, a TGI [5] of 29.4 µM and a TGI [6] of 32.1 µM. It also gave a TGI [7] of 33.1 µM, a TGI [8] of 31.7 µM and a TGI [10] of 26.1 µM. The TGI [9] was 26.2 µM.
C=C1c2nc3ccccc3n2C=C(c2ccccc2)N1c1ccc(C)cc1 was tested, and the TGI [1] was > 100 µM, the TGI [2] was > 100 µM and the TGI [3] was > 100 µM. For the same molecule, the TGI [4] was > 100 µM, the TGI [6] was > 100 µM and the TGI [7] was > 100 µM. The TGI [8] was > 100 µM, the TGI [10] was > 100 µM and the TGI [9] was > 100 µM.
With CCOC(=O)/C=C(/C(=O)OCC)n1cc(C)c(=O)n(Cc2cn(CCCCOC(C)=O)nn2)c1=O the TGI [1] was > 100 µM, the TGI [2] was 34.1 µM and the TGI [3] was 41 µM. The TGI [4] was 25.6 µM, the TGI [5] was 35.2 µM and the TGI [6] was > 100 µM. For the same molecule, the TGI [7] was > 100 µM, the TGI [8] was 32.6 µM and the TGI [10] was > 100 µM. It also gave a TGI [9] of 16.7 µM.
For COC(=O)[C@@H]1C=CCN1S(=O)(=O)c1ccc(C)cc1, the TGI [1] was > 100 µM, the TGI [2] was > 100 µM and the TGI [3] was > 100 µM. For the same molecule, the TGI [4] was > 100 µM, the TGI [5] was > 100 µM and the TGI [6] was > 100 µM. The TGI [7] was > 100 µM, the TGI [8] was > 100 µM and the TGI [10] was > 100 µM. The TGI [9] was > 100 µM.
